Test results: US8674096B2, “Substituted imidazo[1,5-a]quinoxalin-4-ones as phosphodiesterase 9 inhibitors” (priority 2009, dated 2014)

Structure (SMILES)	melting point
Cc1cc2c(cc1C(=O)N1CCc3cc(Br)cnc31)[nH]c(=O)c1cnc([C@H]3CC[C@@H](O)CC3)n12.Cl	305 to 307 °C
Cc1cc2c(cc1C(=O)N1CCc3cccnc31)[nH]c(=O)c1nnc(C3CCOC3)n12.Cl (stereo not drawn)	210 to 211 °C (dec.)
Cc1cc2c(cc1C(=O)N1CCc3c(cc(-c4ccccc4)n3C)C1)[nH]c(=O)c1nnc(C3CCOCC3)n12	223 to 225 °C
Cc1cc2c(cc1C(=O)N1CCN(C)C(c3ccccc3)C1)[nH]c(=O)c1cnc(C3CCOCC3)n12 (stereo not drawn)	189 to 192 °C
COc1cc2c(cc1C(=O)N1CCc3cc(C)cnc31)[nH]c(=O)c1cnc(C3CCOCC3)n12	288 °C (dec.)
COc1cc2c(cc1C(=O)N1CCc3cc(C4CC4)cnc31)[nH]c(=O)c1cnc(C3CCOCC3)n12	297 °C (dec.)
Cc1cc2c(cc1C(=O)N1Cc3ccccc3C1)[nH]c(=O)c1nnc(CC3CCS(=O)(=O)CC3)n12.Cl	253 °C (dec.)
COc1cc2c(cc1C(=O)N1CCc3cc(F)ccc31)[nH]c(=O)c1cnc(C3CCOCC3)n12.Cl	321 to 324 °C (dec.)
Cc1cc2c(cc1C(=O)N1CCc3cc(C4CC4)cnc31)[nH]c(=O)c1nnc(C3CCCC3)n12	208 to 209 °C
Cc1cc2c(cc1C(=O)N1CCN(C)C(c3ccccc3)C1)[nH]c(=O)c1cnc(C3CCCC3)n12 (stereo not drawn)	246 to 248 °C
COCc1cc2c(cc1C(=O)N1CCc3cc(F)c(F)cc31)[nH]c(=O)c1nnc(C3(C)CCOCC3)n12.Cl	195 to 198 °C
Cc1cc2c(cc1C(=O)N1CCc3cc(Cl)ccc31)[nH]c(=O)c1nnc(-c3ccccc3)n12	248 to 249 °C
Cc1c(C(=O)N2CCc3cc(Cl)ccc32)ccc2c1[nH]c(=O)c1cnc(C3CCOCC3)n12	290 °C (dec.)
COc1cc2c(cc1C(=O)N1CCOC(c3ccccc3)C1)[nH]c(=O)c1cnc(C3CCCCC3)n12.Cl (stereo not drawn)	182 to 186 °C
Cc1cc2c(cc1C(=O)N1CCc3cc(Br)cnc31)[nH]c(=O)c1nnc(C3CCC(F)(F)CC3)n12	343 °C (dec.)
Cc1cc2c(cc1C(=O)N1CCc3cccnc31)[nH]c(=O)c1nnc(C3CCOCC3)n12	370 °C (dec.)

Structure (SMILES)	melting point
Cl.O=C(c1cc2[nH]c(=O)c3cnc(C4CCOCC4)n3c2cc1C1CC1)N1CCc2cc(F)ccc21	318 to 321 °C (dec.)
CC(C)c1ncc2c(=O)[nH]c3cc(C(=O)N4CCc5c(Cl)cccc5C4)ccc3n12.Cl	328 to 329 °C
Cc1cc2c(cc1C(=O)N1CCc3cc(Cl)ccc31)[nH]c(=O)c1nnc([C@H]3CC[C@H](O)CC3)n12.Cl	235 to 237 °C
Cc1cc2c(cc1C(=O)N1CCc3ccccc3CC1)[nH]c(=O)c1nnc(C3CCOCC3)n12.Cl	212 to 215 °C
O=C(c1ccc2c(c1)[nH]c(=O)c1nnc(C3CCOCC3)n12)N1CCOC(c2ccccc2)C1 (stereo not drawn)	275 to 276 °C
Cc1cc2c(cc1C(=O)N1Cc3ccccc3C1)[nH]c(=O)c1nnc([C@@H]3CCC[C@@H]3O)n12 (racemic)	316 °C (dec.)
O=C(c1ccc2c(c1)[nH]c(=O)c1nnc(C3CCOCC3)n12)N1CCc2c(Cl)cccc2C1	318 °C (dec.)
Cc1cc2c(cc1C(=O)N1CCc3onc(-c4ccc(Cl)cc4)c3C1)[nH]c(=O)c1nnc(C3CCOC3)n12.Cl (stereo not drawn)	219 to 221 °C
Cc1cc2c(cc1C(=O)N1CCc3cc(Cl)ccc31)[nH]c(=O)c1nnc(CC3CCSCC3)n12.Cl	215 to 218 °C
CCCc1nnc2c(=O)[nH]c3cc(C(=O)N4CCc5c(Cl)cccc5C4)c(C)cc3n12	198 to 202 °C
Cc1cc2c(cc1C(=O)N1CCc3cc(C4CC4)cnc31)[nH]c(=O)c1nnc(C3CCOCC3)n12	210 to 212 °C
Cc1cc2c(cc1C(=O)N1Cc3cccc(C)c3C1)[nH]c(=O)c1nnc(C3CCOCC3)n12	262 to 263 °C
Cc1cc2c(cc1C(=O)N1CCc3cc(Cl)ccc31)[nH]c(=O)c1nnc(C3CCC(F)(F)CC3)n12	230 to 233 °C
Cc1cc2c(cc1C(=O)N1CCc3cc(F)c(Cl)cc31)[nH]c(=O)c1nnc(C3CCOCC3)n12.Cl	316 to 319 °C
Cc1cc2c(cc1C(=O)N1CCc3sccc3C1)[nH]c(=O)c1nnc(C3CCOCC3)n12.Cl	216 to 219 °C
Cc1c(C(=O)N2CCc3cccnc32)ccc2c1[nH]c(=O)c1cnc(C3CCOCC3)n12.Cl	320 °C (dec.)

The next lines start with the values.

melting point	Structure (SMILES)
172 to 174 °C	COCc1cc2c(cc1C(=O)N1Cc3c(F)ccc(F)c3C1)[nH]c(=O)c1cnc(C3CCOCC3)n12.Cl
218 to 220 °C (dec.)	Cc1cc2c(cc1C(=O)N1CCc3cc(Br)cnc31)[nH]c(=O)c1nnc(C3CCCOC3)n12 (stereo not drawn)
218 to 220 °C	Cc1cc2c(cc1C(=O)N1CCc3cc(Cl)ccc31)[nH]c(=O)c1nnc(C3CCCC3)n12.Cl
203 to 205 °C	Cc1ccc2c(c1)CN(C(=O)c1cc3[nH]c(=O)c4cnc(C5CCOCC5)n4c3cc1C)C2
225 to 228 °C	Cc1cc2c(cc1C(=O)N1CCc3cc(Cl)ccc31)[nH]c(=O)c1nnc(C3CCC3)n12.Cl
207 to 209 °C	Cc1cc2c(cc1C(=O)N1CCc3cc(Cl)ccc31)[nH]c(=O)c1cnc([C@H]3CC[C@H](O)CC3)n12.Cl
335 to 336 °C	Cc1cc2c(cc1C(=O)N1CCc3cc(Cl)ccc31)[nH]c(=O)c1nnc(C3CCOCC3)n12
199 to 203 °C (dec.)	Cl.O=C(c1cc2[nH]c(=O)c3cnc(C4CCOCC4)n3c2cc1C1CC1)N1Cc2ccc(Cl)cc2C1
204 to 206 °C	Cc1ccc2c(c1)CCN2C(=O)c1cc2[nH]c(=O)c3cnc(C4CCCOC4)n3c2cc1C.Cl (stereo not drawn)
201 to 203 °C	Cc1cc2c(cc1C(=O)N1Cc3cccc(F)c3C1)[nH]c(=O)c1cnc(C3CCOCC3)n12.Cl
219 to 220 °C (dec.)	Cc1cc2c(cc1C(=O)N1CCc3cc(Br)ccc31)[nH]c(=O)c1cnc(C3CCOCC3)n12.Cl
200 to 203 °C	Cc1cc2c(cc1C(=O)N1Cc3ccc(Cl)cc3C1)[nH]c(=O)c1cnc(C3CCCOC3)n12.Cl (stereo not drawn)
315 °C (dec.)	Cc1cc2c(cc1C(=O)N1CCc3cc(F)c(Cl)cc31)[nH]c(=O)c1cnc(C3CCOCC3)n12.Cl
286 °C (dec.)	Cc1cc2c(cc1C(=O)N1Cc3cccc(C4CC4)c3C1)[nH]c(=O)c1cnc(C3CCOCC3)n12.Cl
297 to 299 °C	Cc1cc2c(cc1C(=O)N1CCc3c(Cl)cccc3C1)[nH]c(=O)c1cnc(C3CCCC3)n12
276 to 277 °C	Cc1cc2c(cc1C(=O)N1CCc3ccc(C(F)(F)F)cc31)[nH]c(=O)c1cnc(C3CCOCC3)n12.Cl
352 °C (dec.)	Cl.O=C(c1cc2[nH]c(=O)c3cnc(C4CCOCC4)n3c2cc1Cl)N1CCc2cc(Cl)ccc21
205 to 207 °C	Cl.O=C(c1cc2[nH]c(=O)c3cnc(C4CCOCC4)n3c2cc1C1CC1)N1Cc2cccc(F)c2C1
297 °C (dec.)	Cc1cc2c(cc1C(=O)N1CCc3cc(Cl)cnc31)[nH]c(=O)c1cnc(C3CCOCC3)n12.Cl
223 to 224 °C	Cc1cc2c(cc1C(=O)N1Cc3ccccc3C1)[nH]c(=O)c1nnc(C3CCOC3)n12.Cl (stereo not drawn)

melting point	Structure (SMILES)
287 to 288 °C	Cc1cc2c(cc1C(=O)N1CCc3cc(F)c(F)cc31)[nH]c(=O)c1cnc(C3CCOCC3)n12.Cl
301 to 304 °C	Cc1cc2c(cc1C(=O)N1CCc3ccc([N+](=O)[O-])cc31)[nH]c(=O)c1cnc(C3CCOCC3)n12.Cl
200 to 202 °C	Cc1cc2c(cc1C(=O)N1CCc3cc(F)ccc31)[nH]c(=O)c1cnc([C@H]3CC[C@@H](O)CC3)n12.Cl
313 °C (dec.)	Cc1cc2c(cc1C(=O)N1Cc3cccc(I)c3C1)[nH]c(=O)c1cnc(C3CCOCC3)n12.Cl
283 °C (dec.)	Cc1cc2c(cc1C(=O)N1Cc3cccc(C)c3C1)[nH]c(=O)c1cnc(C3CCCOC3)n12.Cl (stereo not drawn)
199 to 201 °C	Cc1cc2c(cc1C(=O)N1CCc3cc(F)ccc31)[nH]c(=O)c1cnc([C@H]3CC[C@H](O)CC3)n12.Cl
277 °C (dec.)	COCc1cc2c(cc1C(=O)N1Cc3cccc(F)c3C1)[nH]c(=O)c1cnc(C3CCOCC3)n12.Cl
186 to 188 °C (dec.)	Cc1ccc2c(c1)CCN2C(=O)c1cc2[nH]c(=O)c3cnc(C4CCOC4)n3c2cc1C.Cl (stereo not drawn)
282 to 284 °C	Cc1ccc2c(c1)CCN2C(=O)c1cc2[nH]c(=O)c3cnc(C4CCOCC4)n3c2cc1C.Cl
209 °C (dec.)	COc1cccc2c1CN(C(=O)c1cc3[nH]c(=O)c4cnc(C5CCOCC5)n4c3cc1C)C2.Cl
185 to 189 °C (dec.)	Cl.O=C(c1cc2[nH]c(=O)c3cnc(C4CCOCC4)n3c2cc1C1CC1)N1Cc2ccccc2C1
299 to 303 °C	COc1cc2c(cc1C(=O)N1Cc3ccccc3C1)[nH]c(=O)c1cnc(C3CCCCC3)n12.Cl
279 °C (dec.)	Cc1cc2c(cc1C(=O)N1CCc3cc(Cl)ccc31)[nH]c(=O)c1ncc(C3CCCC3)n12.Cl
183 to 186 °C	Cc1c(C(=O)N2Cc3ccccc3C2)ccc2c1[nH]c(=O)c1cnc(C3CCOCC3)n12.Cl
236 to 239 °C	Cc1cc2c(cc1C(=O)N1CCc3ncccc3C1)[nH]c(=O)c1cnc(C3CCOCC3)n12
212 to 213 °C	Cc1cc2c(cc1C(=O)N1CCc3cccc(C(=O)O)c3C1)[nH]c(=O)c1cnc(C3CCOCC3)n12.Cl
341 °C (dec.)	Cc1cc2c(cc1C(=O)N1CCc3cccnc31)[nH]c(=O)c1cnc(C3CCOCC3)n12
206 to 208 °C	Cc1cc2c(cc1C(=O)N1Cc3cccc(C)c3C1)[nH]c(=O)c1cnc(C3CCOCC3)n12.Cl
186 to 188 °C	Cc1cc2c(cc1C(=O)N1CCc3cc(F)ccc31)[nH]c(=O)c1cnc(C3CCOC3)n12.Cl (stereo not drawn)
192 to 194 °C (dec.)	Cc1cc2c(cc1C(=O)N1CCc3cnn(C)c3C1)[nH]c(=O)c1cnc(C3CCOCC3)n12
